Results on two molecules are retold here after US10968462B2, “Plants having increased tolerance to herbicides” (BASF AGRO B.V., priority 2013, dated 2021).

Holding throughout (assay type): biochemical, Amaranthus tuberculatum
Assay [1] has as its target wild type and amino acid substituted PPO enzyme (PPO2) of SEQ ID NO: 2 (AMARE) (Amaranthus tuberculatus, UniProt Q0NZW9, R128L, form not given).
The target in assay [2] is wild type and amino acid substituted PPO enzyme (PPO2) of SEQ ID NO: 2 (AMARE) (Amaranthus tuberculatus, UniProt Q0NZW9, F204I/F457M, form not given).
Assay [3] addresses wild type and amino acid substituted PPO enzyme (PPO2) of SEQ ID NO: 2 (AMARE) (Amaranthus tuberculatus, UniProt Q0NZW9, F204I/T208S, form not given).
Assay [4] has as its target wild type and amino acid substituted PPO enzyme (PPO2) of SEQ ID NO: 2 (AMARE) (Amaranthus tuberculatus, UniProt Q0NZW9, R128A/L397D, form not given).
Assay [5] concerns the target wild type and amino acid substituted PPO enzyme (PPO2) of SEQ ID NO: 2 (AMARE).

`CC(C)N(C)S(=O)(=O)NC(=O)c1cc(-n2c(=O)cc(C(F)(F)F)n(C)c2=O)c(F)cc1Cl` [Saflufenacil, saflufenacil]: the IC50 (in general, the midpoint of a concentration-inhibition curve) was 222 nM in assay [1], 0.0189 nM in assay [2] and 0.0589 nM in assay [3].
On to `C#CCN1C(=O)C(F)(F)Oc2cc(F)c(-n3c(=O)n(C)c(=S)n(C)c3=O)cc21` [1,5-dimethyl-6-thioxo-3-(2,2,7-trifluoro-3-oxo-4-(prop-2-yny] [reference compound], for which the IC50 worked out at 5.9 nM in assay [4], 0.0752 nM in assay [2], 0.129 nM in assay [3] and 246 nM in assay [5].
